This is an account of results in patent publication US7943660B2, “Inhibitors of the LFA-1/ICAM-1 interaction and uses thereof” (Dominion Pharmakine S.L., priority 2005, dated 2011).

In turn, `CC[C@H](C)C(OCc1ccccc1)[C@@H]1[C@H]([N+](=O)[O-])[C@H](c2ccccc2)N(C(=O)CN)[C@]1(C)C(=O)NCCCC(=O)O` (stereo partly drawn) [Compound 17, 4-[(2S,3R,4S,5S)-1-(2-aminoacetyl)-3-[(2S)-1-(benzyloxy)-2-methylbutyl]-2-methyl-4-nitro-5-phenylpyrrolidine-2-carboxamido]butanoic acid] showed a melting point of 132.7 to 133.6 °C. Then `CC[C@H](C)C(OCc1ccccc1F)[C@H]1[C@H]([N+](=O)[O-])[C@@H](c2cccs2)N[C@@H]1C(=O)NCCC(=O)O` (stereo partly drawn) [Compound 6, 3-[(2S,3R,4S,5S)-3-[(2S)-1-(2-Fluorobenzyloxy)-2-methylbutyl]-4-nitro-5-(thiophen-2-yl)pyrrolidine-2-carboxamido]propanoic acid], with 94 to 96 °C; and `CC[C@H](C)C(OCc1ccccc1F)[C@H]1[C@H]([N+](=O)[O-])[C@H](c2ccccc2)N[C@@H]1C(=O)NCCC(=O)O` (stereo partly drawn) [Compound 3, 3-[(2S,3R,4S,5S)-3-[(2S)-1-(2-Fluorobenzyloxy)-2-methylbutyl]-4-nitro-5-phenylpyrrolidine-2-carboxamido]propanoic acid], with 136 to 138 °C; and `CC(C)C(OCc1ccccc1)[C@H]1[C@H]([N+](=O)[O-])[C@H](c2cccnc2)N[C@@H]1C(=O)NCCC(=O)O` (stereo partly drawn) [Compound 8, 3-[(2S,3R,4S,5S)-3-(1-(Benzyloxy)-2-methylpropyl)-4-nitro-5-(pyridin-3-yl)pyrrolidine-2-carboxamido]propanoic acid], with 98 to 100 °C.

`CC[C@H](C)C(OCc1ccccc1)[C@H]1[C@H]([N+](=O)[O-])[C@@H](c2cccs2)N[C@@H]1C(=O)NCCC(=O)O` (stereo partly drawn) [Compound 7, 3-[(2S,3R,4S,5S)-3-[(2S)-1-(Benzyloxy)-2-methylbutyl]-4-nitro-5-(thiophen-2-yl)pyrrolidine-2-carboxamido]propanoic acid] returned a melting point of 79 to 80 °C.

Regarding `CC[C@H](C)C(OCc1ccccc1F)[C@H]1[C@H]([N+](=O)[O-])[C@H](c2ccsc2)N[C@@H]1C(=O)NCCC(=O)O` (stereo partly drawn) [Compound 4, 3-[(2S,3R,4S,5S)-3-[(2S)-1-(2-Fluorobenzyloxy)-2-methylbutyl]-4-nitro-5-(thiophen-3-yl)pyrrolidine-2-carboxamido]propanoic acid], the melting point is 113 to 114 °C. In turn, `CC(C)C(OCc1ccccc1)[C@H]1[C@H]([N+](=O)[O-])[C@@H](c2ccco2)N[C@@H]1C(=O)NCCC(=O)O` (stereo partly drawn) [Compound 9, 3-[(2S,3R,4S,5S)-3-(1-(Benzyloxy)-2-methylpropyl)-5-(furan-2-yl)-4-nitropyrrolidine-2-carboxamido]propanoic acid] gave a melting point of 70 to 72 °C. Then `CC[C@H](C)C(OCc1ccccc1)[C@H]1[C@H]([N+](=O)[O-])[C@H](c2ccccc2)N[C@@H]1C(=O)NCCC(=O)O` (stereo partly drawn) [Compound 1, 3-[(2S,3R,4S,5S)-3-[(2S)-1-(Benzyloxy)-2-methylbutyl]-4-nitro-5-phenylpyrrolidine-2-carboxamido]propanoic acid], with 140 to 141 °C; and `CC[C@H](C)C(OCc1ccccc1)[C@H]1[C@H]([N+](=O)[O-])[C@H](c2ccsc2)N[C@@H]1C(=O)NCCC(=O)O` (stereo partly drawn) [Compound 5, 3-[(2S,3R,4S,5S)-3-[(2S)-1-(Benzyloxy)-2-methylbutyl]-4-nitro-5-(thiophen-3-yl)pyrrolidine-2-carboxamido]propanoic acid], with 145 to 146 °C. Then `CC[C@H](C)C(OCc1ccccc1)[C@@H]1[C@H]([N+](=O)[O-])[C@H](c2ccccc2)N(C(=O)CN)[C@]1(C)C(=O)NCCC(=O)O` (stereo partly drawn) [Compound 16, 3-[(2S,3R,4S,5S)-1-(2-Aminoacetyl)-3-[(2S)-1-(benzyloxy)-2-methylbutyl]-2-methyl-4-nitro-5-phenylpyrrolidine-2-carboxamido]propanoic acid], with 115.9 to 116.2 °C.

As a reminder, the melting point is the temperature, or range, at which the solid turns liquid.
